From ChEMBL document CHEMBL1127114, “Conformationally constrained analogues of diacylglycerol. 5. 2,5-Dideoxy-3-O-tetradecanoyl-D-galactono-1,4-lactone: A superior homologue of 3-O-tetradecanoyl-2-deoxy-L-ribonolactone with PK-C binding affinity” (Bioorg Med Chem Lett, 1993)

How the values were obtained:
[1] = target: T1, Protein kinase C alpha type (Homo sapiens, UniProt P17252); experiment: Inhibition of [20-3H]phorbol-12,13-dibutyrate(PDBU) binding to purified PK-C alpha
[2] = target: T1, Protein kinase C alpha type; experiment: Inhibition of [3H]phorbol-12,13-dibutyrate binding to PK-C

## CCCCCCCCCCCCCC(=O)O[C@@H]1CC(=O)O[C@H]1CCO
[1]
  Ki: 880 nM

## CCCCCCCCCCCCCC(=O)O[C@@H]1CC(=O)O[C@H]1CO
[1]
  Ki: 1500 nM
[2]
  Ki: 2500 nM
